According to PMC4465272 (eNeuro, 2015):
Entries after “also recorded” stand apart in the source; their conditions may differ. Where two headings read alike, the source gives them in different places.

What was measured:
[1] = system: eEPSCs in the dorsal horn of rat spinal cord; conditions: cited from earlier work
[2] = system: model of peripheral neuropathy in the rat; conditions: ref Franek et al., 2004; cited from earlier work
Excerpt: Furthermore, GABAB receptor activation inhibits the activity of N-type CaV channels (CaV2.2) and inhibition of N-type channels expressed by nocicept ...

[3] = system: CaV current in rat sensory neurons (DRG); experiment: cells; format: cell-based, rat (adult male Sprague Dawley); conditions: for inhibition at 30 µM: Rattus norvegicus, Neuron
animal pain models = conditions: in vivo, iv; cited from earlier work

| Molecule | effect on eEPSCs / EPSPs in dorsal horn [1] | analgesic effect [2] | sensory neurons with CaV current inhibited by baclofen [3] | voltage dependence of CaV current inhibition [3] | inhibition at 30 µM ([3]; read-out: CaV current inhibition in the neuron with the largest Vc1.1 and RgIA response) | inhibition at 30 µM ([3]; read-out: CaV current inhibition in the neuron with the largest baclofen response) | inhibition at 30 µM ([3]; read-out: baclofen-induced CaV current inhibition in seven other neurons) | inhibition at 30 µM ([3]; read-out: postpulse CaV current inhibition) | inhibition at 30 µM ([3]; read-out: prepulse CaV current inhibition) | effect on neuropathic pain (animal pain models) |
| --- | --- | --- | --- | --- | --- | --- | --- | --- | --- | --- |
| NCC(CC(=O)O)c1ccc(Cl)cc1 (stereo not shown) [baclofen, reference compound] | strongly inhibited; also recorded: almost completely blocked | analgesic effects | 95% | voltage-dependent | 22% | 34% | 20 to 24% | 12 ± 5.5% | 19.2 ± 6.8% | – |
| ziconotide [reference compound] | – | – | – | – | – | – | – | – | – | did not decrease neuropathic pain |
